≈ marks a conversion by molar mass, not a printed value.
Tests used:
[1] = Plasma concentration in mouse at 20 mg/kg, po measured after 8 hrs; format: ADME, organism-based
[2] = Drug uptake in mouse lungs at 20 mg/kg, po measured after 8 hrs; format: ADME, organism-based; details: lung, read-out: Drug uptake
[3] = Cytotoxicity against human HEK293T cells assessed as reduction in cell viability measured after 3 days by CellTiterGlo Luminescent assay; format: toxicity, cell-based, HEK-293T; details: time 3 day
[4] = Cytotoxicity against human HepG2 cells assessed as reduction in cell viability measured after 3 days by CellTiterGlo Luminescent assay; format: toxicity, cell-based; details: time 3 day
[5] = tested on: Mycobacterium tuberculosis; assay: Antitubercular activity against Mycobacterium tuberculosis H37Rv assessed as inhibition of bacterial growth incubated for 7 days by Microdilution Alamar Blue assay; format: functional; details: 168 h, time 7 day

SMILES | concentration at 8 h [1] | concentration at 8 h [2] | CC50 at 72 h [3] | CC50 at 72 h [4] | MIC [5]
CS(=O)(=O)Nc1ncn(-c2cc(F)c(COc3ccc(OS(=O)(=O)F)cc3)c(F)c2)n1 | 2120 ng/mL | 1600 ng/mL |  |  | 
O=S(=O)(F)Oc1ccc(OCc2c(F)cc(-n3cnnc3)cc2F)cc1 |  |  | > 40 µM | > 40 µM | 0.22 µM (≈ 0.0848 µg/mL)
CN(C)c1ncn(-c2cc(F)c(COc3ccc(OS(=O)(=O)F)cc3)c(F)c2)n1 |  |  | > 40 µM | > 40 µM | 0.31 µM (≈ 0.133 µg/mL)
